Literature values as cited in US20090156634A1, “Tropane alkaloids and trigonelline combinations and methods for administering the same” (priority 2007, published 2009).
Where a name gives a salt, the structure may show the parent alone.

What was measured:
[1] = tested on: diaphragm; details: rats, low-dose
[2] = tested on: rat cultured sensory neurons; details: attributed to inhibition of potassium channels
[3] = tested on: central nervous system; details: orally administered to rats
[4] = tested on: dendrites and axons; details: mice models of Alzheimer's disease

Row | Structure (SMILES) | effect on diaphragm fatigue [1] | excitability of the rat dorsal gangliae [2] | central nervous system effect [3] | effect on dendrites and axons [4]
1 | NCCc1ccc(O)c(O)c1 [dopamine] | can prevent and/or reverse diaphragm fatigue | – | – | –
2 | C[n+]1cccc(C(=O)[O-])c1 [trigonelline, 3-carboxy-1-methyl-pyridinum inner salt] | – | increases the excitability | central nervous system stimulating effects | induce regenerative effects in dendrites and axons
